Source: the supplement of paper PMC3493320

Test system: NCI-H295R
Experiment: IC50 (antiproliferative, ATP content)
Settings: 48 h
Summary of the method: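 In 1536-well plates, 1500 adrenocortical carcinoma cells per well were grown overnight in serum-free, ITS-supplemented DMEM before compounds were pin-transferred at 8 final concentrations (0.6 nM to 46 µM). After 48 h at 37 °C and 5% CO2, CellTiter-Glo luminescence was read following 20 min at room temperature and normalised to vehicle and positive-control wells. IC50 values came from logistic curve fits, with compounds lacking any concentration response listed as above the top dose.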

| SMILES | IC50 |
| --- | --- |
| N=C(N)N1CCc2ccccc2C1.N=C(N)N1CCc2ccccc2C1.O=S(=O)(O)O | > 46 µM |
| Cc1ccc(O)c(-n2nc3ccccc3n2)c1 | > 46 µM |
| CCC1(CC)C(=O)NC(=O)NC1=O | > 46 µM |
| Cl.F/C(COc1ccc2c(c1)[nH]c1ccccc12)=C1\CN2CCC1CC2 | > 46 µM |
| C[C@]12N[C@H](Cc3ccccc31)c1ccccc12.O=C(O)/C=C\C(=O)O | > 46 µM |
| CN(C)CCOC(c1ccccc1)c1ccccc1 | > 46 µM |
| OCCO[C@@H]1[C@@H](O)[C@H](O)[C@@H](CO)O[C@@H]1O | > 46 µM |
| CCCCCN(C)CCC(O)(P(=O)([O-])O)P(=O)(O)O.[Na+] | > 46 µM |
| CN1CCN(c2c(F)cc3c(=O)c(C(=O)O)cn4c3c2OCN4C)CC1 | > 46 µM |
| CC(NC(C)(C)C)C(=O)c1cccc(Cl)c1.Cl (centres undefined) | > 46 µM |
| OC(c1ccccc1)(c1ccccc1)C1CCNCC1 | > 46 µM |
| CC(C)Oc1ccc2c(=O)c(-c3ccccc3)coc2c1 | > 46 µM |
| NCCc1cc[nH]n1 | > 46 µM |
| C[C@H]1C(=O)NC2=Nc3cccc(Cl)c3CN21 | > 46 µM |
| CN1CCN(CCCN2c3ccccc3Sc3ccc(S(=O)(=O)N(C)C)cc32)CC1.CS(=O)(=O)O.CS(=O)(=O)O | > 46 µM |
| O=C(C2)N([C@]([H])1[C@@]([O-])=O)[C@]2([H])O\C1=C/CO.[Li+] | > 46 µM |
| CCCCCCCCCC(=O)O[C@H]1CC[C@H]2[C@@H]3CCC4=CC(=O)CC[C@]4(C)[C@H]3CC[C@]12C | > 46 µM |
| [C@]23([C@](OC(c1occc1)=O)([C@H](C)C[C@H]2[C@H]5[C@]([C@H](C3)O)([C@@]\4(\C(=C/C(/C=C/4)=O)CC5)C)Cl)C(=O)CCl)C | > 46 µM |
| N[C@@H](CSSC[C@H](N)C(=O)O)C(=O)O | > 46 µM |

| SMILES | IC50 |
| --- | --- |
| COc1ccnc(CS(=O)c2nc3cc(OC(F)F)ccc3[nH]2)c1OC (centres undefined) | > 46 µM |
| CC(=O)[C@H]1CC[C@H]2[C@@H]3CC[C@H]4C[C@H](O)CC[C@]4(C)[C@H]3C(=O)C[C@]12C | > 46 µM |
| C[C@]12CCC(=O)C=C1C=C[C@@H]1[C@@H]2CC[C@@]2(C)[C@H]1CC[C@@]21CCC(=O)O1 | > 46 µM |
| CCCCCCNC(=O)n1cc(F)c(=O)[nH]c1=O | > 46 µM |
| COc1cc(N)c(Cl)cc1C(=O)NC1CCN(CCCOc2ccc(F)cc2)CC1OC (centres undefined) | > 46 µM |
| CC(C)(C)C(=O)Oc1ccc(S(=O)(=O)Nc2ccccc2C(=O)NCC(=O)[O-])cc1.O.O.O.O.[Na+] | > 46 µM |
| O.O.O.O.[Na+].[O-]c1ccccc1-c1ccccc1 | > 46 µM |
| OCc1ccc(Cl)cc1Cl | > 46 µM |
| Cc1ccccc1OCC(O)CNCCOc1ccc(C(N)=O)cc1 (centres undefined) | > 46 µM |
| CO[C@@]1(NC(=O)C(C(=O)[O-])c2ccc(O)cc2)C(=O)N2C(C(=O)[O-])=C(CSc3nnnn3C)CO[C@@H]21.[Na+].[Na+] (some centres undefined) | > 46 µM |
| CC(C)CC(N(C)C)C1(c2ccc(Cl)cc2)CCC1.Cl (centres undefined) | > 46 µM |
| Cl.Cl.O=C(O)COCCN1CCN(C(c2ccccc2)c2ccc(Cl)cc2)CC1 (centres undefined) | > 46 µM |
| C[N+]1(CCCCC[N+]2(C)CCCC2)CCCC1.O=C([O-])[C@H](O)[C@@H](O)C(=O)O.O=C([O-])[C@H](O)[C@@H](O)C(=O)O | > 46 µM |
| NS(=O)(=O)c1ccc(Cl)c(S(N)(=O)=O)c1 | > 46 µM |
| CC(=O)Oc1cc(C(F)(F)F)ccc1C(=O)O | > 46 µM |
| Cc1ccccc1C(OCCN(C)C)c1ccccc1.O=C(O)CC(O)(CC(=O)O)C(=O)O (centres undefined) | > 46 µM |
| CN1CCC(Nc2ncc3ncnc(Nc4ccc(F)c(Cl)c4)c3n2)CC1.Cl.Cl | > 46 µM |
| Cc1cc(N)c2ccccc2[n+]1CCCCCCCCCC[n+]1c(C)cc(N)c2ccccc21.[Cl-].[Cl-] | > 46 µM |
| CN(C)C(=O)COC(=O)Cc1ccc(OC(=O)c2ccc(NC(=N)N)cc2)cc1.CS(=O)(=O)O | > 46 µM |

The remaining lines, values ahead:

| IC50 | SMILES |
| --- | --- |
| > 46 µM | O=C1O[C@H]([C@@H](O)CO)C(O)=C1O |
| > 46 µM | Cl.Cl.OCCN1CCN(CC/C=C2\c3ccccc3Sc3ccc(Cl)cc32)CC1 |
| > 46 µM | CCCCCOC(=O)Nc1nc(=O)n([C@@H]2O[C@H](C)[C@@H](O)[C@H]2O)cc1F |
| > 46 µM | CN(C)C(=O)C(CCN1CCC(O)(c2ccc(Cl)cc2)CC1)(c1ccccc1)c1ccccc1 |
| > 46 µM | O=C([O-])CN(CCN(CC(=O)[O-])CC(=O)[O-])CC(=O)[O-].[Ca+2].[Na+].[Na+] |
| > 46 µM | O=C(OC(C)C)/C(C(OC(C)C)=O)=C1SC=CS/1 |
| > 46 µM | CC(=O)N(CC(C)C(=O)O)c1c(I)cc(I)c(N)c1I (centres undefined) |
| > 46 µM | CCN(CC)CCNC(=O)c1cc(Br)c(N)cc1OC |
| > 46 µM | Cn1c([N+](=O)[O-])cnc1COC(N)=O |
| > 46 µM | O=C(O)CCCCCCCC(=O)O |
| > 46 µM | CC(=O)N[C@H]1[C@@H](O[C@@H]2C(C(=O)[O-])C[C@@H](O[C@H]3[C@H](C)[C@@H](NS(=O)(=O)O)[C@@H](OC4C(C(=O)[O-])O[C@@H](OC5[C@H]6CO[C@H](O6)[C@H](NS(=O)(=O)[O-])[C@H]5O)[C@H](O)[C@H]4O)O[C@@H]3COS(=O)(=O)O)[C@H](O)[C@H]2O)O[C@H](COS(=O)(=O)O)[C@@H](O[C@@H]2OC(C(=O)[O-])=C[C@H](O)[C@H]2OS(=O)(=O)O)[C@@H]1O.[Na+].[Na+].[Na+].[Na+] (some centres undefined) |
| > 46 µM | Nc1nc(N)c(-c2ccccc2)s1 |
| > 46 µM | O=C(O)[C@H](O)c1ccccc1 |
| > 46 µM | O=C([O-])c1cc(=O)c2c(OCC(O)COc3cccc4oc(C(=O)[O-])cc(=O)c34)cccc2o1.[Na+].[Na+] |
| > 46 µM | COCCCOc1ccnc(CS(=O)c2nc3ccccc3[n-]2)c1C.[Na+] (centres undefined) |
| > 46 µM | CN(C)CCCN1c2ccccc2C(C)(C)c2ccccc21 |

| IC50 | SMILES |
| --- | --- |
| > 46 µM | O=C(C(CCC)CCC)O[C@@H]1C[C@H](CC2)[N@@+](C)(C)[C@H]2C1.[Br-] |
| > 46 µM | O=C([O-])Cc1ccccc1Nc1c(Cl)cccc1Cl.[Na+] |
| > 46 µM | CN1CCC(OC(=O)C(Oc2ccc(Cl)cc2)Oc2ccc(Cl)cc2)CC1 |
| > 46 µM | CC(C)(C#N)c1cc(Cn2cncn2)cc(C(C)(C)C#N)c1 |
| > 46 µM | O=C1[C@]([C@](CC4)([H])[C@@]3([H])[C@@](C1)(C)[C@@](CC3)(O)[C@@](CO)=O)([H])[C@](C=C2)(C)C4=CC2=O |
| > 46 µM | Cc1cccn2c(=O)c(-c3nnn[n-]3)cnc12.[K+] |
| > 46 µM | O=C(O)Cc1ccc(-c2ccccc2)cc1 |
| > 46 µM | NS(=O)(=O)c1cc(Cl)c(Cl)c(S(N)(=O)=O)c1 |
| > 46 µM | O=C(O)Cc1sc(-c2ccccc2)nc1-c1ccc(Cl)cc1 |
| > 46 µM | Nc1ncn([C@H]2C[C@H](O)[C@@H](CO)O2)c(=O)n1 |
| > 46 µM | O=C(O)c1cc(O)nc(O)n1 |
| > 46 µM | Cl.O=C(c1ccc(F)cc1)C1CCN(CCn2c(=S)[nH]c3ccccc3c2=O)CC1 |
| > 46 µM | CC[N+](CC)(CCNC(=O)C(=O)NCC[N+](CC)(CC)Cc1ccccc1Cl)Cc1ccccc1Cl.[Cl-].[Cl-] |
| > 46 µM | C[C@H](Cc1ccc(O)c(O)c1)[C@@H](C)Cc1ccc(O)c(O)c1 |
| > 46 µM | CN1C(C(=O)Nc2ccccn2)=C(O)c2ccccc2S1(=O)=O |
